Data published in US8742110B2, “Spiroxazolidinone compounds” (Merck Sharp & Dohme Corp., priority 2010, dated 2014).
Structures can show the parent of a compound that is named as a salt.

Molecular target: SSTR5 (Homo sapiens (Human), UniProt P35346)
Test: SSTR5 binding assay
Details: CHO-K1 membranes expressing cloned human SSTR5
Description: The receptor-ligand binding assays of all 5 subtype of SSTRs were performed with membranes isolated from Chinese hamster ovary (CHO)-K1 cells stably expressing the cloned human somatostatin receptors in 96-well format as previous reported.
The stable cell lines for SSTR1-SSTR5 were developed by stably transfecting with DNA for all five SSTRs using Lipofectamine. […] The assay buffer consisted of 50 mM TrisHCl (pH 7.8) with 1 mM EGTA, […] MgCl2, leupeptin (10 μg/mL), pepstatin (10 μg/mL), bacitracin (200 μg/mL), and aprotinin (0.5 μg/mL). CHO-K1 cell membranes, radiolabeled somatostatin, and unlabeled test compounds were resuspended or diluted in this assay buffer. Unlabeled test compounds were examined over a range of concentrations from 0.01 nM to 10,000 nM.
Compounds exemplified were tested in the SSTR5 binding assay.

Sequence of SSTR5 (P35346 whole entry): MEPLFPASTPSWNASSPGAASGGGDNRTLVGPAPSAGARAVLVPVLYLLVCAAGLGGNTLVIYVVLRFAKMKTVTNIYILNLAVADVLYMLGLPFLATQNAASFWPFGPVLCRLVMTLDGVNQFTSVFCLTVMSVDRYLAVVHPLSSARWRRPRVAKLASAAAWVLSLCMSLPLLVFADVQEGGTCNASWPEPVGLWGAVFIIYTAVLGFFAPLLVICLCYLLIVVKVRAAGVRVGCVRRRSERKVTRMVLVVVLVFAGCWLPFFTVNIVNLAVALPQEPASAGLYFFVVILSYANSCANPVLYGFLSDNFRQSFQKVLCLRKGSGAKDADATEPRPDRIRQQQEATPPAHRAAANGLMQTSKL

Row | IC50 | IC50 (TFA salt) | SMILES
1 | 2.23 nM | – | CC(C)(C)n1cc(CN2CCC3(CC2)CN(c2ccc(C(=O)O)cc2)C(=O)O3)c(-c2ccc(F)c(F)c2F)n1 [Example 1-1, 4-(8-{[1-tert-Butyl-3-(2,3,4-trifluorophenyl)-1H-pyrazol-4-yl]methyl}-2-oxo-1-oxa-3,8-diazaspiro[4.5]dec-3-yl)benzoic acid, TFA salt]
2 | 4.59 nM | – | COc1ccc(-c2nn(C3CC3)cc2CN2CCC3(CC2)CN(c2ccc(C(=O)O)cc2)C(=O)O3)cc1 [Example 1-4, 4-(8-{[1-Cyclopropyl-3-(4-methoxyphenyl)-1,1-pyrazol-4-yl]methyl}-2-oxo-1-oxa-3,8-diazaspiro[4.5]dec-3-yl)benzoic acid, TFA salt]
3 | 2.62 nM | – | CC(C)(C)n1cc(CN2CCC3(CC2)CN(c2ccc(C(=O)O)cc2)C(=O)O3)c(-c2cc(F)c(F)cc2F)n1 [Example 1-7, 4-(8-{[1-tert-Butyl-3-(2,4,5-trifluorophenyl)-1H-pyrazol-4-yl]methyl}-2-oxo-1-oxa-3,8-diazaspiro[4.5]dec-3-yl)benzoic acid, TFA salt]
4 | 2.16 nM | – | CC(C)(C)n1cc(CN2CCC3(CC2)CN(c2ccc(C(=O)O)cc2)C(=O)O3)c(-c2c(F)cc(F)cc2F)n1 [Example 1-8, 4-(8-{[1-tert-Butyl-3-(2,4,6-trifluorophenyl)-1H-pyrazol-4-yl]methyl}-2-oxo-1-oxa-3,8-diazaspiro[4.5]dec-3-yl)benzoic acid, TFA salt]
5 | 2 nM | – | COc1ccc(-c2nn(-c3ccccc3)cc2CN2CCC3(CC2)CN(c2ccc(C(=O)O)cc2)C(=O)O3)cc1 [Example 1-9, 4-(8-{[3-(4-Methoxyphenyl)-1-phenyl-1H-pyrazol-4-yl]methyl}-2-oxo-1-oxa-3,8-diazaspiro[4.5]dec-3-yl)benzoic acid, TFA salt]
6 | 2.86 nM | – | COc1ccc(-c2nn(C(C)(C)C)cc2CN2CCC3(CC2)CN(c2ccc(C(=O)O)cc2)C(=O)O3)cc1 [Example 1-10, 4-(8-{[1-tert-Butyl-3-(4-methoxyphenyl)-1H-pyrazol-4-yl]methyl}-2-oxo-1-oxa-3,8-diazaspiro[4.5]dec-3-yl)benzoic acid, TFA salt]
7 | 5.32 nM | – | CCOc1ccc(-c2nn(-c3ccccc3)cc2CN2CCC3(CC2)CN(c2ccc(C(=O)O)cc2)C(=O)O3)cc1 [Example 1-12, 4-(8-{[3-(4-Ethoxyphenyl)-1-phenyl-1H-pyrazol-4-yl]methyl}-2-oxo-1-oxa-3,8-diazaspiro[4.5]dec-3-yl)benzoic acid, TFA salt]
8 | – | 4.7 nM | COc1ccccc1-c1nn(C(C)(C)C)cc1CN1CCC2(CC1)CN(c1ccc(C(=O)O)cc1)C(=O)O2 [Example 1-14, 4-(8-{[1-tert-butyl-3-(2-Methoxyphenyl)-1H-pyrazol-4-yl]methyl}-2-oxo-1-oxa-3,8-diazaspiro[4.5]dec-3-yl)benzoic acid, TFA salt]
9 | 4.87 nM | – | COc1cccc(-c2nn(-c3ccccc3)cc2CN2CCC3(CC2)CN(c2ccc(C(=O)O)cc2)C(=O)O3)c1 [Example 1-22, 4-(8-{[3-(3-Methoxyphenyl)-1-phenyl-1H-pyrazol-4-yl]methyl}-2-oxo-1-oxa-3,8-diazaspiro[4.5]dec-3-yl)benzoic acid, TFA salt]
10 | 12.9 nM | – | O=C(O)c1ccc(N2CC3(CCN(Cc4cn(-c5ccccc5)nc4-c4ccc(OC(F)(F)F)cc4)CC3)OC2=O)cc1 [Example 1-27, 4-[2-Oxo-8-({1-phenyl-3-[4-(trifluoromethoxy)phenyl]-1H-pyrazol-4-yl}methyl)-1-oxa-3,8-diazaspiro[4.5]dec-3-yl]benzoic acid, TFA salt]
11 | 0.421 nM | – | CC(C)(C)n1cc(CN2CCC3(CC2)CN(c2ccc(C(=O)O)cc2)C(=O)O3)c(-c2ccc(F)c(Cl)c2)n1 [Example 1-28, 4-(8-{[1-tert-Butyl-3-(3-chloro-4-fluorophenyl)-1H-pyrazol-4-yl]methyl}-2-oxo-1-oxa-3,8-diazaspiro[4.5]dec-3-yl)benzoic acid, TFA salt]

Second part, the compound before the results:

Row | SMILES | IC50 | IC50 (TFA salt)
12 | O=C(O)c1ccc(N2CC3(CCN(Cc4cn(C5CCCCC5)nc4-c4ccc(F)c(Cl)c4)CC3)OC2=O)cc1 [Example 1-2, 4-(8-{[3-(3-Chloro-4-fluorophenyl)-1-cyclohexyl-1H-pyrazol-4-yl]methyl}-2-oxo-1-oxa-3,8-diazaspiro[4.5]dec-3-yl)benzoic acid, TFA salt] | 0.943 nM | –
13 | O=C(O)c1ccc(N2CC3(CCN(Cc4cn(-c5ccccc5)nc4-c4ccccc4)CC3)OC2=O)cc1 [Example 1-3, 4-{8-[(1,3-Diphenyl-1H-pyrazol-4-yl)methyl]-2-oxo-1-oxa-3,8-diazaspiro[4.5]dec-3-yl}benzoic acid, TFA salt] | 2.81 nM | –
14 | O=C(O)c1ccc(N2CC3(CCN(Cc4cn(C5CCCCC5)nc4-c4cccc(C(F)(F)F)c4)CC3)OC2=O)cc1 [Example 1-5, 4-[8-({1-Cyclohexyl-3-[3-(trifluoromethyl)phenyl]-1H-pyrazol-4-yl}methyl)-2-oxo-1-oxa-3,8-diazaspiro[4.5]dec-3-yl]benzoic acid, TFA salt] | 1.53 nM | –
15 | Cc1ccc(-n2cc(CN3CCC4(CC3)CN(c3ccc(C(=O)O)cc3)C(=O)O4)c(-c3ccc(F)c(F)c3F)n2)c(C)c1 [Example 1-6, 4-(8-{[1-(2,4-Dimethylphenyl)-3-(2,3,4-trifluorophenyl)-1H-pyrazol-4-yl]methyl}-2-oxo-1-oxa-3,8-diazaspiro[4.5]dec-3-yl)benzoic acid, TFA salt] | 1.54 nM | –
16 | Cc1cc(N2CC3(CCN(Cc4cn(C(C)(C)C)nc4-c4cc(F)c(Cl)cc4F)CC3)OC2=O)ccc1C(=O)O [Example 1-11, 4-(8-{[1-tert-Butyl-3-(4-chloro-2,5-difluorophenyl)-1H-pyrazol-4-yl]methyl}-2-oxo-1-oxa-3,8-diazaspiro[4.5]dec-3-yl)-2-methylbenzoic acid, TFA salt] | 6.24 nM | –
17 | CC(C)(C)n1cc(CN2CCC3(CC2)CN(c2ccc(C(=O)O)c(Cl)c2)C(=O)O3)c(-c2cc(F)c(Cl)cc2F)n1 [Example 1-13, 4-(8-{[1-tert-Butyl-3-(4-chloro-2,5-difluorophenyl)-1H-pyrazol-4-yl]methyl}-2-oxo-1-oxa-3,8-diazaspiro[4.5]dec-3-yl)-2-chlorobenzoic acid, TFA salt] | 4.09 nM | –
18 | CC(C)n1cc(CN2CCC3(CC2)CN(c2ccc(C(=O)O)cc2)C(=O)O3)c(-c2ccc(F)c(F)c2F)n1 [Example 1-17, 4-(2-Oxo-8-{[1-(propan-2-yl)-3-(2,3,4-trifluorophenyl)-1H-pyrazol-4-yl]methyl}-1-oxa-3,8-diazaspiro[4.5]dec-3-yl)benzoic acid, TFA salt] | 2.14 nM | –
19 | CCCCn1cc(CN2CCC3(CC2)CN(c2ccc(C(=O)O)cc2)C(=O)O3)c(-c2ccc(F)c(F)c2F)n1 [Example 1-18, 4-(8-{[1-Butyl-3-(2,3,4-trifluorophenyl)-1H-pyrazol-4-yl]methyl}-2-oxo-1-oxa-3,8-diazaspiro[4.5]dec-3-yl)benzoic acid, TFA salt] | 2.7 nM | –
20 | O=C(O)c1ccc(N2CC3(CCN(Cc4cn(C5CCCCC5)nc4-c4ccc(F)c(F)c4F)CC3)OC2=O)cc1 [Example 1-19, 4-(8-{[1-Cyclohexyl-3-(2,3,4-trifluorophenyl)-1H-pyrazol-4-yl]methyl}-2-oxo-1-oxa-3,8-diazaspiro[4.5]dec-3-yl)benzoic acid, TFA salt] | 1.33 nM | –
21 | O=C(O)c1ccc(N2CC3(CCN(Cc4cn(-c5ccc(F)cc5)nc4-c4ccc(F)cc4)CC3)OC2=O)cc1 [Example 1-20, 4-(8-{[1,3-Bis(4-fluorophenyl)-1H-pyrazol-4-yl]methyl}-2-oxo-1-oxa-3,8-diazaspiro[4.5]dec-3-yl)benzoic acid, TFA salt] | 5.33 nM | –
22 | O=C(O)c1ccc(N2CC3(CCN(Cc4cn(-c5cccc6c5OCCO6)nc4-c4ccc(F)c(F)c4F)CC3)OC2=O)cc1 [Example 1-21, 4-(8-{[1-(2,3-Dihydro-1,4-benzodioxin-5-yl)-3-(2,3,4-trifluorophenyl)-1H-pyrazol-4-yl]methyl}-2-oxo-1-oxa-3,8-diazaspiro[4.5]dec-3-yl)benzoic acid, TFA salt] | 3.21 nM | –
23 | O=C(O)c1ccc(N2CC3(CCN(Cc4cn(C5CCCCC5)nc4-c4ccc(OC(F)(F)F)cc4)CC3)OC2=O)cc1 [Example 1-23, 4-[8-({1-Cyclohexyl-3-[4-(trifluoromethoxy)phenyl]-1H-pyrazol-4-yl}methyl)-2-oxo-1-oxa-3,8-diazaspiro[4.5]dec-3-yl]benzoic acid, TFA salt] | 2.26 nM | –
24 | O=C(O)c1ccc(N2CC3(CCN(Cc4cn(C5CCCCC5)nc4-c4ccc(C(F)(F)F)cc4)CC3)OC2=O)cc1 [Example 1-24, 4-[8-({1-Cyclohexyl-3-[4-(trifluoromethyl)phenyl]-1H-pyrazol-4-yl}methyl)-2-oxo-1-oxa-3,8-diazaspiro[4.5]dec-3-yl]benzoic acid, TFA salt] | 2.01 nM | –
25 | CC1(C)C2CCC(C2)C1n1cc(CN2CCC3(CC2)CN(c2ccc(C(=O)O)cc2)C(=O)O3)c(-c2ccc(F)c(F)c2F)n1 (centres unmarked) [Example 1-25, 4-(8-{[1-(3,3-Dimethylbicyclo[2.2.1]hept-2-yl)-3-(2,3,4-trifluorophenyl)-1H-pyrazol-4-yl]methyl}-2-oxo-1-oxa-3,8-diazaspiro[4.5]dec-3-yl)benzoic acid, TFA salt] | 0.74 nM | –
26 | O=C(O)c1ccc(N2CC3(CCN(Cc4cn(-c5ccc6ccccc6c5)nc4-c4ccc(F)c(F)c4F)CC3)OC2=O)cc1 [Example 1-26, 4-(8-{[1-(Naphthalen-2-yl)-3-(2,3,4-trifluorophenyl)-1H-pyrazol-4-yl]methyl}-2-oxo-1-oxa-3,8-diazaspiro[4.5]dec-3-yl)benzoic acid, TFA salt] | 2.72 nM | –
